These are literature values, as cited in patent US8535699B2, “Insect-repelling resin composition and extended-release insect-repelling resin molded product obtained therefrom” (Sumika Life Tech, Limited, priority 2009, dated 2013).

SMILES strings stand for the structures.

The conditions of this series: at 20° C.

In the case of `CC(C)=CC1C(C(=O)OCc2cccc(Oc3ccccc3)c2)C1(C)C` (centres unmarked) [Phenothrin], the Vapour pressure was 1.2×10^−6 mmHg.

`CCOP(=O)(OCC)OCC` [Triethyl phosphate]: the Vapour pressure was 0.3 mmHg.
